From patent US7196110B2, “N-substituted tricyclic 3-aminopyrazoles as inhibitors for the treatment of cell proliferative disorders” (Janssen Phamaceutica N.V., priority 2002, dated 2007)

Legend:
c-Abl kinase = c-Abl kinase (Abelson murine leukemia virus, UniProt P00521); assay: Inhibition of c-Abl kinase activity (cell-free, Abl peptide substrate, 33P Flashplate); type: biochemical; settings: IC50 for the c-Abl kinase activity
[1] = biological target: T1, PDGF-receptor beta enzyme comprising the tyrosine kinase domain (Homo sapiens, UniProt P09619); assay: Inhibition of PDGF-receptor kinase activity (cell-free, PLC1 peptide, 33P Flashplate); type: biochemical; settings: PDGF-R kinase activity; for inhibition at 10 µM: compound at 10 uM, read-out: Percent Inhibition @ 10 uM; for IC50: read-out: IC50
T1 construct: from amino acid 545 to 1106 of GenBank Access NO: AAA36427
T1 sequence (P09619 545-1106): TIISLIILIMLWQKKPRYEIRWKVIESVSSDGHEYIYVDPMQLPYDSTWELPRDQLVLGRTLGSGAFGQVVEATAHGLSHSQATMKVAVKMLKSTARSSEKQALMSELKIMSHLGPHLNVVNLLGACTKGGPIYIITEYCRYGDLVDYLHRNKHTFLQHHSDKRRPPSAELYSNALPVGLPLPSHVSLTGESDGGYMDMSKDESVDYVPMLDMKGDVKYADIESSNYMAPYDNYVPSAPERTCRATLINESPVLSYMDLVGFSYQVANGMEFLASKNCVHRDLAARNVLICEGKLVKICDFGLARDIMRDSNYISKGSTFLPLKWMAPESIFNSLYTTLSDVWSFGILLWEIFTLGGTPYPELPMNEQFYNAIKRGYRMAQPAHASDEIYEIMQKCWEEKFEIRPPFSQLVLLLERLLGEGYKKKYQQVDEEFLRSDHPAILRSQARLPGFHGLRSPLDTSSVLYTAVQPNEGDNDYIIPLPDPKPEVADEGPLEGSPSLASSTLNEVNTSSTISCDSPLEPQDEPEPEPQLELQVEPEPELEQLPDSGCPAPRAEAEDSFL
Outline: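 The IC50 is the inhibitor level halving kinase activity relative to inhibitor-free wells, measured as 33P captured on a streptavidin-bound biotin-PLC1 peptide. The reaction ran 60 min at 30 °C in pH 8 Tris buffer with 1 mM DTT, 5 μM ATP and the 545–1106 kinase-domain enzyme.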

c-Abl kinase, sequence (P00521 115-385): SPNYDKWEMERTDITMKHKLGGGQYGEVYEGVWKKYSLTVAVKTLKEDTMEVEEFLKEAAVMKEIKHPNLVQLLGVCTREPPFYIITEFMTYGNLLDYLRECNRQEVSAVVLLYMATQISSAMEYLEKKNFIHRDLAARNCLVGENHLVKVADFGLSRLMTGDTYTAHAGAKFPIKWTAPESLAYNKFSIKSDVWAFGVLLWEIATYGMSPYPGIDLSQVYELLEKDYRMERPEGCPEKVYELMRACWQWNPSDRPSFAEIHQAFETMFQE

Row | SMILES | IC50 (c-Abl kinase) [nM] | inhibition at 10 µM [1] [%] | IC50 [1] [nM]
1 | COc1cc2c(cc1OCC(O)CN1CCCC1)Cc1c-2n[nH]c1NCc1ccccc1Cl (stereo not drawn) [Compound 396, 1-[3-(2-Chloro-benzylamino)-7-methoxy-2,4-dihydro-indeno[1,2-c]pyrazol-6-yloxy]-3-pyrrolidin-1-yl-propan-2-ol] | 2 | 99.5 | 5.13
2 | OCCCOc1cc2c(cc1OCCCO)-c1n[nH]c(Nc3cccc(F)c3)c1C2 [Compound 398, 3-[3-(3-Fluoro-phenylamino)-6-(3-hydroxy-propoxy)-2,4-dihydro-indeno[1,2-c]pyrazol-7-yloxy]-propan-1-ol] | 10 | 96 | 6.82
3 | COc1cccc(Nc2[nH]nc3c2Cc2cc(OCCCO)c(OCCCO)cc2-3)c1 [Compound 400, 3-[7-(3-Hydroxy-propoxy)-3-(3-methoxy-phenylamino)-2,4-dihydro-indeno[1,2-c]pyrazol-6-yloxy]-propan-1-ol] | 5 | 98.5 | 2.92
4 | CCOc1cccc(Nc2[nH]nc3c2Cc2cc(OCCCO)c(OCCCO)cc2-3)c1 [Compound 401, 3-[3-(3-Ethoxy-phenylamino)-7-(3-hydroxy-propoxy)-2,4-dihydro-indeno[1,2-c]pyrazol-6-yloxy]-propan-1-ol] | 14 | 98.5 | 22
5 | Clc1cccc(Cl)c1CNc1[nH]nc2c1Cc1c(OCCCN3CCOCC3)cccc1-2 [Compound 415, (2,6-Dichloro-benzyl)-[5-(3-morpholin-4-yl-propoxy)-2,4-dihydro-indeno[1,2-c]pyrazol-3-yl]-amine] | 219 | 98 | 25.8
6 | CCC1c2cc(OC)c(OC)cc2-c2n[nH]c(Nc3cccc(Cl)c3)c21 (stereo not drawn) [Compound 419, (3-Chloro-phenyl)-(4-ethyl-6,7-dimethoxy-2,4-dihydro-indeno[1,2-c]pyrazol-3-yl)-amine] | 292 | 100 | 62.1
7 | COc1cccc2c1Cc1c-2n[nH]c1Nc1cccc(F)c1 [Compound 422, (3-Fluoro-phenyl)-(5-methoxy-2,4-dihydro-indeno[1,2-c]pyrazol-3-yl)-amine] | 3080 | 83 | 29.7
8 | COc1cc2c(cc1OCCCO)Cc1c-2n[nH]c1NCc1c(Cl)cccc1Cl [Compound 448, 3-[3-(2,6-Dichloro-benzylamino)-7-methoxy-2,4-dihydro-indeno[1,2-c]pyrazol-6-yloxy]-propan-1-ol] | 3 | 100 | 1.77
9 | COc1cc2c(cc1OCCCO)Cc1c-2n[nH]c1NCc1c(F)cccc1F [Compound 449, 3-[3-(2,6-Difluoro-benzylamino)-7-methoxy-2,4-dihydro-indeno[1,2-c]pyrazol-6-yloxy]-propan-1-ol] | 23 | 98.5 | 4.1
10 | COc1cc2c(cc1OCC(O)CO)Cc1c-2n[nH]c1NCc1c(F)cccc1F (stereo not drawn) [Compound 457, 3-[3-(2,6-Difluoro-benzylamino)-7-methoxy-2,4-dihydro-indeno[1,2-c]pyrazol-6-yloxy]-propane-1,2-diol] | 4 | 100 | 3.41
11 | CCOC(=O)CC(=O)n1nc(Nc2cccc(F)c2)c2c1-c1cc(OC)c(OC)cc1C2 [Compound 459, 3-[3-(3-Fluoro-phenylamino)-6,7-dimethoxy-4H-indeno[1,2-c]pyrazol-1-yl]-3-oxo-propionic acid ethyl ester] | 70 | 100 | 36.5
12 | CCOc1cc2c(cc1OCC(O)CN1CCCC1)-c1n[nH]c(Nc3cccc(F)c3)c1C2 (stereo not drawn) [Compound 460, 1-[6-Ethoxy-3-(3-fluoro-phenylamino)-2,4-dihydro-indeno[1,2-c]pyrazol-7-yloxy]-3-pyrrolidin-1-yl-propan-2-ol] | 4 | 97.5 | 4.27
13 | CCOc1cc2c(cc1OCC(O)CN1CCCC1)-c1n[nH]c(Nc3cccnc3)c1C2 (stereo not drawn) [Compound 461, 1-[6-Ethoxy-3-(pyridin-3-ylamino)-2,4-dihydro-indeno[1,2-c]pyrazol-7-yloxy]-3-pyrrolidin-1-yl-propan-2-ol] | 337 | 97.5 | 7.55
14 | CCOc1cccc(Nc2[nH]nc3c2Cc2cc(OCC)c(OCC(O)CN4CCCC4)cc2-3)c1 (stereo not drawn) [Compound 463, 1-[6-Ethoxy-3-(3-ethoxy-phenylamino)-2,4-dihydro-indeno[1,2-c]pyrazol-7-yloxy]-3-pyrrolidin-1-yl-propan-2-ol] | 8 | 98.5 | 11
15 | COc1cc2c(cc1OC)-c1c(c(Nc3cccc(F)c3)nn1C(=O)CCC(=O)O)C2 [Compound 466, 4-[3-(3-Fluoro-phenylamino)-6,7-dimethoxy-4H-indeno[1,2-c]pyrazol-1-yl]-4-oxo-butyric acid] | 191 | 96 | 31.1
16 | COc1cc2c(cc1OC)-c1c(c(Nc3cccc(F)c3)nn1C(=O)COC(C)=O)C2 [Compound 467, Acetic acid 2-[3-(3-fluoro-phenylamino)-6,7-dimethoxy-4H-indeno[1,2-c]pyrazol-1-yl]-2-oxo-ethyl ester] | 244 | 96.5 | 17.6
17 | OCC(O)COc1cccc2c1Cc1c-2n[nH]c1Nc1cccc(Br)c1 (stereo not drawn) [Compound 468, 3-[3-(3-Bromo-phenylamino)-2,4-dihydro-indeno[1,2-c]pyrazol-5-yloxy]-propane-1,2-diol] | 603 | 95.5 | 47.8
18 | OCC(O)COc1cccc2c1Cc1c-2n[nH]c1Nc1cccc(F)c1 (stereo not drawn) [Compound 469, 3-[3-(3-Fluoro-phenylamino)-2,4-dihydro-indeno[1,2-c]pyrazol-5-yloxy]-propane-1,2-diol] | 27 | 96 | 160
19 | CCCC(=O)OCn1nc(Nc2cccc(F)c2)c2c1-c1cc(OC)c(OC)cc1C2 [Compound 490, Butyric acid 3-(3-fluoro-phenylamino)-6,7-dimethoxy-4H-indeno[1,2-c]pyrazol-1-ylmethyl ester] | 38 | 96 | 28.5
